Experimental findings from the Deep4Chem optical property database are described below.

The structures appear in SMILES notation.

The nature of the series: solvent given as SMILES.
[1] abbreviates: in c1ccc2c(c1)c1ccccc1n2-c1ccc(-c2ccc(-n3c4ccccc4c4ccccc43)cc2)cc1.

On to `Cc1ccc(NC(=O)c2sc(Br)nc2C)cc1`, for which the fluorescence lifetime (in CO) worked out at 0.22 ns and the fluorescence lifetime (in ClC(Cl)Cl) is 0.12 ns.
Under “in ClCCl”, `C[Si]1(C)c2cc(-c3ccc(-c4cccs4)s3)ccc2C=Cc2ccc(-c3ccc(-c4cccs4)s3)cc21` had a fluorescence lifetime of 0.94 ns.
`c1cc2c3c(c1)-c1cccc4cccc(c14)B3c1cccc3cccc-2c13` gave a fluorescence lifetime (in Cc1ccccc1) of 6.31 ns.
`CCCCCCCCCCOc1ccc(C#Cc2cc3c(C#Cc4ccc(OCCCCCCCCCC)cc4)c(C#Cc4ccc(OCCCCCCCCCC)cc4)c4cc(C#Cc5ccc(OCCCCCCCCCC)cc5)cc5c(C#Cc6ccc(OCCCCCCCCCC)cc6)c(C#Cc6ccc(OCCCCCCCCCC)cc6)c(c2)c3c45)cc1` returned a fluorescence lifetime (in ClCCl) of 15.3 ns.
As for `COCCN1C(=O)/C(=C/c2cccc(N(C)C)c2)N=C1C`, the fluorescence lifetime worked out at 14.7 ns (in C1CCOC1), 7.9 ns (in CC#N) and 21.2 ns (in CCCCCC).
As to `C(#Cc1ccc(-n2c3ccccc3c3ccccc32)cc1)c1ccc(-c2nc(-c3ccc(C#Cc4ccc(-n5c6ccccc6c6ccccc65)cc4)cc3)nc(-c3ccc(C#Cc4ccc(-n5c6ccccc6c6ccccc65)cc4)cc3)n2)cc1`, the fluorescence lifetime (in ClCCl) was determined as 4.16 ns.
On to `COc1ccc(C#Cc2c3ccccc3c(C#Cc3ccc(OC)cc3)c3cc4ccccc4cc23)cc1`, for which the fluorescence lifetime (in ClCCl) worked out at 7 ns.
Regarding `N#Cc1cc(N2c3ccccc3Oc3ccccc32)cc(N2c3ccccc3Oc3ccccc32)c1`, for the setting “in Cc1ccccc1”, the fluorescence lifetime is 26.1 ns.
Compound `CCCCCCCCCCCCN1C(=O)c2c(c3ccc4cc(-c5ccc(C=O)cc5)c(OC)cc4c3c3c2ccc2cc(-c4ccc(C=O)cc4)c(OC)cc23)C1=O` yielded a fluorescence lifetime (in ClCCl) of 6.45 ns.
Turning to `O=C(O)c1cccc2c(=O)c3ccccc3[nH]c12`, the fluorescence lifetime (in O) worked out at 3.1 ns.
On to `Cc1ccc(C#Cc2ccc(C#Cc3ccc(C#Cc4ccccc4C#N)cc3C#N)cc2C#N)cc1`, for which the fluorescence lifetime (in ClC(Cl)Cl) came out at 1.23 ns.
Compound `CCCCCCN1C(=O)c2cccc3cc(/N=C\c4ccc5c(c4)c4ccccc4n5CC)cc(c23)C1=O` had a fluorescence lifetime (in ClC(Cl)Cl) of 8.97 ns.
For `CN(C)c1ccc(C2=Nc3scc(-c4ccc(N(C)C)cc4)[n+]3[B-](F)(F)O2)cc1`, the fluorescence lifetime (in C1CCOC1) was determined as 0.21 ns.
In the case of `Nc1ccc2c(c1)C(=O)N(C13C[C@H]4C[C@@H](C1)C[C@@H](C3)C4)C2=O`, the fluorescence lifetime reads like this: (in C1CCCCC1) 10.7 ns; (in C1CCOC1) 18.2 ns; (in CC#N) 19 ns; (in CCOC(C)=O) 17 ns; (in CO) 9.49 ns; (in CS(C)=O) 22.4 ns. Further, the fluorescence lifetime came to 17.3 ns (in Cc1ccccc1) and 24.6 ns (in ClCCl).
Turning to `N#Cc1cc(N2c3ccccc3Sc3ccccc32)c(N2c3ccccc3Sc3ccccc32)cc1C#N`, the fluorescence lifetime under setting [1] was found to be 48.2 ns.
With `CCCCCCN1C(=O)c2cc(-c3ccc(-n4c5ccccc5c5ccccc54)cc3)c(-c3ccc(-n4c5ccccc5c5ccccc54)cc3)cc2C1=O`, the fluorescence lifetime stood at 11.2 ns (in ClC(Cl)Cl) and 10 ns under setting [1].
As for `Fc1ccc(-[c+]2c3ccccc3oc3ccccc32)cc1`, where the note is “in CC#N”, the fluorescence lifetime came to 18.8 ns.
In the case of `CCCCCCN1C(=O)c2cccc3cc(/N=C\c4ccc(N5CCOCC5)cc4)cc(c23)C1=O`, the fluorescence lifetime (in ClC(Cl)Cl) worked out at 3.84 ns.
`c1ccc(N(c2ccccc2)c2ccc(-c3ccc4c(c3)C3(c5ccccc5Sc5ccccc53)c3cc(-c5ccc(N(c6ccccc6)c6ccccc6)cc5)ccc3-4)cc2)cc1` gave a fluorescence lifetime (in ClCCl) of 1.2 ns.
For the compound `CCN(CC)c1ccc2cc3c(cc2c1)C1(c2ccccc2Oc2ccccc21)c1cc2cc(N(CC)CC)ccc2cc1C3=O`, the fluorescence lifetime (in CC#N) is 2.5 ns.
`CCCCCCCCCCCCCCCCN(CCCCCCCCCCCCCCCC)c1ccc(/C=C/c2cc[n+](Cc3cc(C[n+]4ccc(/C=C/c5ccc(N(CCCCCCCCCCCCCCCC)CCCCCCCCCCCCCCCC)cc5)cc4)cc(C[n+]4ccc(/C=C/c5ccc(N(CCCCCCCCCCCCCCCC)CCCCCCCCCCCCCCCC)cc5)cc4)c3)cc2)cc1`: the fluorescence lifetime is 0.8 ns (in CCCCCCCCO); 0.17 ns (in CCO); 0.11 ns (in CO); 0.92 ns (in ClC(Cl)Cl); 0.74 ns (in ClCCl).
As to `CC(C)[Si]1(C(C)C)c2ccccc2-c2ccc(N(C)C)cc21`, the fluorescence lifetime stood at 6.5 ns (in C1CCCCC1) and 4 ns (in ClCCl).
For the setting “in C1CCOC1”, `C[Si](C)(C)c1ccc(-c2ccc(-c3ccc(-c4ccc(-c5ccc([Si](C)(C)C)cc5)s4)c4nsnc34)s2)cc1` gave a fluorescence lifetime of 6.9 ns.
Consider `CCOC(=O)c1ccc2c(c1)[nH]c1c3ccc(C(=O)OCC)cc3[nH]c21`, for which the fluorescence lifetime (in CCCO) was determined as 4.75 ns.
Consider `CCN(CC)c1ccc(-c2nc3cc(C(NC(=O)OC(C)(C)C)C(=O)OC)ccc3o2)c(O)c1` (configuration not stated), for which the fluorescence lifetime runs as follows: (in CC1CCCCC1) 0.22 ns; (in CC#N) 0.67 ns; (in CO) 0.25 ns.
As to `COc1ccc(/C=C/c2ccc(-c3ccc(C)cn3)nc2)cc1`, the fluorescence lifetime (in CC#N) came out at 0.58 ns.
As to `N#C/C(=C\c1ccc(C=C(c2ccccc2)c2ccccc2)cc1)c1ccccc1`, the fluorescence lifetime (in C1CCOC1) was 1 ns.
For the setting “in Cc1ccccc1”, `Cc1cc(C)c(B(c2ccccc2-n2c3ccccc3c3ccccc32)c2c(C)cc(C)cc2C)c(C)c1` displayed a fluorescence lifetime of 38 ns.
Take `CC(C)(C)c1ccc2c(c1)c1cc(C(C)(C)C)ccc1n2-c1ccc(S(=O)(=O)c2ccc(-n3c4ccc(C(C)(C)C)cc4c4cc(C(C)(C)C)ccc43)cc2)cc1`: the fluorescence lifetime by setting is: (in Cc1ccccc1) 5.3 ns; (in O=P(c1ccccc1)(c1ccccc1)c1ccccc1Oc1ccccc1P(=O)(c1ccccc1)c1ccccc1) 7.6 ns.
In the case of `CC(C)(C)c1ccc(C2=C(c3ccc(C(C)(C)C)cc3)[Si](c3ccccc3)(c3ccccc3)c3ccccc32)cc1`, the fluorescence lifetime (in C1CCOC1) was found to be 1.62 ns.
Regarding `NS(=O)(=O)c1ccc(N2N=C(c3ccc(O)cc3)CC2c2ccc(F)cc2)cc1` (configuration not stated), the fluorescence lifetime worked out at 2.42 ns (in C1CCOC1); 2.33 ns (in C1COCCO1); 2.24 ns (in CC#N); 1.98 ns (in CC(C)O); 1.78 ns (in CCO); 2.35 ns (in CCOC(C)=O). Also, the fluorescence lifetime by setting is: (in CN(C)C=O) 2.45 ns; (in CO) 1.64 ns; (in CS(C)=O) 2.45 ns; (in O) 3.17 ns.
Regarding `CCOC(=O)c1cc(C)n2nc(-c3ccccc3)ccc12`, under “in CCCCCC”, the fluorescence lifetime was found to be 17.4 ns.
In the case of `N#Cc1ccc(-n2cccc2)cc1`, the fluorescence lifetime by setting is: (in CC#N) 8.2 ns; (in CCCCCC) 2.42 ns; (in CCOCC) 3.8 ns; (in ClCCl) 3.1 ns.
As to `CC(=O)OC[C@H]1O[C@@H](OCC#Cc2ccc(C3=C4C(C)=CC(/C=C/c5ccc(N(C)C)cc5)=[N+]4[B-](F)(F)n4c(/C=C/c5ccc(N(C)C)cc5)cc(C)c43)cc2)[C@H](OC(C)=O)C(OC(C)=O)[C@@H]1OC(C)=O` (some centres not stated), under “in CC#N”, the fluorescence lifetime stood at 2.4 ns.
Where the note is “in ClCCl”, `Cc1ccc(-c2cc(/C=C/c3ccc(N(c4ccccc4)c4ccccc4)cc3)c(-c3ccc(C)cc3)cc2/C=C/c2ccc(N(c3ccccc3)c3ccccc3)cc2)cc1` gave a fluorescence lifetime of 1.34 ns.
Regarding `Cc1cc(C)c2c(c1)c1cc(C)cc(C)c1n2-c1ccc2c(c1)Sc1cc3c(cc1B2c1c(C(C)C)cc(C(C)C)cc1C(C)C)B(c1c(C(C)C)cc(C(C)C)cc1C(C)C)c1ccccc1S3`, the fluorescence lifetime was determined as 0.65 ns (in Cc1ccccc1) and 2 ns (in O=P(c1ccccc1)(c1ccccc1)c1ccc2oc3ccc(P(=O)(c4ccccc4)c4ccccc4)cc3c2c1).
Consider `Cc1ccc(C2=C3C=CC=[N+]3[B-](F)(F)n3cccc32)cc1`, for which the fluorescence lifetime (in C1CCCCC1) was 0.34 ns; the fluorescence lifetime (in CC#N) was found to be 0.196 ns; the fluorescence lifetime (in CCO) is 0.253 ns; the fluorescence lifetime (in CCOC(C)=O) was 0.237 ns; the fluorescence lifetime (in CO) was 0.197 ns; the fluorescence lifetime (in OCC(F)(F)F) stood at 0.323 ns.
The compound `COc1ccc(-c2csc(/C(C#N)=C/c3ccc(C#N)cc3)n2)cc1` gave a fluorescence lifetime (in CC#N) of 1.43 ns.
As to `CCN(CC)c1ccc2c(-c3ccccc3C(=O)O)c3c([o+]c2c1)/C(=C/Nc1ccccc1)CCC3`, the fluorescence lifetime came to 5.19 ns (in CCO), 3.16 ns (in ClC(Cl)Cl) and 5.8 ns (in ClCCl).
Where the note is “in Cc1ccccc1”, `CC1=[N+]2C(=C(c3ccc(C#N)cc3)c3ccc(C)n3[B-]2(F)F)C=C1` had a fluorescence lifetime of 0.55 ns.
The compound `COC(=O)C(NC(=O)OC(C)(C)C)c1ccc2oc(-c3ccc(OC(=O)c4ccccc4)cc3O)nc2c1` (configuration not stated) showed a fluorescence lifetime (in CC1CCCCC1) of 0.64 ns, a fluorescence lifetime (in CC#N) of 0.3 ns and a fluorescence lifetime (in CO) of 0.027 ns.
Consider `CCCCCCC1(CCCCCC)c2ccccc2-c2ccc(-c3ccc(-c4cc(-c5ccccn5)nc(-c5ccccn5)c4)cc3)cc21`, for which the fluorescence lifetime (in ClCCl) is 0.77 ns.
For `COc1cc2cc(OC)c(C#Cc3ccc([N+](=O)[O-])cc3)cc2cc1C#Cc1ccc([N+](=O)[O-])cc1`, the fluorescence lifetime runs as follows: (in C1CCOC1) 0.25 ns; (in ClC(Cl)Cl) 0.9 ns; (in ClCCl) 0.38 ns.
For `CN1C(=CC2=C([O-])C(=CC3=[N+](C)c4ccccc4C3(C)C)C2=O)C(C)(C)c2cc(Cl)ccc21`, the fluorescence lifetime was 0.2 ns (in CO) and 1.05 ns (in ClC(Cl)Cl).
For `c1ccc(-c2ccc(-c3ccc(N(c4ccccc4)c4ccccc4)cc3)c3nsnc23)cc1`, the fluorescence lifetime runs as follows: (in C1CCOC1) 7.95 ns; (in CC(C)=O) 3.58 ns; (in CCCCCC) 6.77 ns; (in CCOCC) 7.46 ns.
Regarding `CCOC(=O)CCCCCn1c2ccccc2c(=O)c2cc(I)ccc21`, for the setting “in CO”, the fluorescence lifetime was 1.7 ns.
On to `CCCCCCCCCCCCN1C(=O)c2c(c3ccc4cc(-c5ccc(C)cc5)c(OC)cc4c3c3c2ccc2cc(-c4ccc(C)cc4)c(OC)cc23)C1=O`, for which the fluorescence lifetime (in ClCCl) was 6.2 ns.
Take `COc1ccc2c3c([nH]c2c1)C(C)=NCC3`: the fluorescence lifetime runs as follows: (in CC#N) 5.29 ns; (in CS(C)=O) 2.91 ns; (in O) 4.65 ns.
